Molecular target: T1, PA0254/HudA (PA0254^UbiX) (Pseudomonas aeruginosa, UniProt Q9I6N5)
T1 sequence (Q9I6N5 1-496): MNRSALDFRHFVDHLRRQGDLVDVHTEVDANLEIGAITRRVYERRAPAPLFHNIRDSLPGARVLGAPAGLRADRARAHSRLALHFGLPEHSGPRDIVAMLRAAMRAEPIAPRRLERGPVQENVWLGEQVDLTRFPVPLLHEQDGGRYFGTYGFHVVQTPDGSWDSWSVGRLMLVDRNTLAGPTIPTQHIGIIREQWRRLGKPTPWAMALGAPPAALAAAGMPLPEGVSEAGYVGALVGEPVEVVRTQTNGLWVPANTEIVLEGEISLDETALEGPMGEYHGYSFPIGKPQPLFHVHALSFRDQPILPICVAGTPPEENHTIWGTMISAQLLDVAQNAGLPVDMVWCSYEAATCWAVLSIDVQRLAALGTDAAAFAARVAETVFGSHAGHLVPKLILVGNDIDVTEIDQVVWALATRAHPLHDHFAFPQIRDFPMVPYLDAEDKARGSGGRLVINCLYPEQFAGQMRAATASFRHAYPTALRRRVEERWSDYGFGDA
Assay: inhibition of P2C decarboxylation, histidine-eluted enzyme
Type: biochemical
Settings: read-out: % inhibition at 10 mM

c1c[nH]cn1 [imidazole]
inhibition at 10000 µM: ~50%

Source: article PMC7976604 (ACS Catalysis, 2021)
